In patent EP1480941B1, “UREA DERIVATIVES AS HIV ASPARTYL PROTEASE INHIBITORS” (priority 2002, dated 2003):
Where two headings read alike, the source gives them in different places.

Tests used:
[1] = system: MT-4; assay: Cytotoxicity assay in vitro (MTT assay, virus omitted); assay type: cell-based; settings: cell culture IC50, same MTT assay with virus omitted; average of at least two determinations
From the text: (§1) Anti-viral and cytotoxicity assays in vitro
(§2) We also use some WT clinical strains.

[2] = system: laboratory viral strain NL4.3; assay: Anti-viral assay in vitro (MTT assay on infected MT-4 cells); assay type: cell-based, HIV-1; settings: Human immunodeficiency virus 1, MT4, 144 h, infected MT-4 cells incubated six days, average of at least two determinations
From the text: as §1, §2

[3] = target: HIV protease (Human immunodeficiency virus type 1 group M subtype B, UniProt P04585); assay: Enzymatic (fluorometric FRET) assay for determining the inhibition constant (Ki); assay type: biochemical; settings: EDANS/DABCYL substrate, equation of Henderson
From the text: Enzymatic assay for determining the inhibition constant (Ki) of synthetic compounds targeting the HIV protease
This is a fluorometric assay based on the cleavage by protease of a substrate carrying a donor group (EDANS) and an acceptor group (DABCYL) on each side of the cleavage site, interacting together through fluorescence resonance energy transfer (FRET) as described by Matayoshi et al. (Science 247:[…], 1990).
After calculation of Vo and Vi, the inhibition constant (Ki) of the compound is determined using the equation of Henderson: (Vo)/(Vi) = 1 + ([I])/(Kiapp) Where Ki = (Kiapp)/((1 + [S])/(Km)) [formula] where Vo = the enzyme's initial velocity Vi = the enzyme velocity in the presence of the inhibitory compound, [I] = inhibitor concentration, [S] = substrate concentration, Km = Michaelis-Menten constant and Kiapp = apparent Ki
Graphs are traced and the Ki determined using GraphPad Prism software v. 3.0.

What does the source list for `Cc1ccc(S(=O)(=O)N(CC(C)C)[C@H](CO)CCCCNC(=O)N(Cc2ccccc2)Cc2ccccc2[N+](=O)[O-])cc1` [Example 59, (2S) 2-N-isobutyl-2-N-(4-methylbenzenesulfonyl)-6-N-[N'-benzyl-N'-(2-nitrobenzyl)aminocarbonyl]-2,6-diaminohexanol]?
CCIC50 [1]: 4.6 µM; EC50 [2]: 385 nM

For `Cc1ccc(S(=O)(=O)N(CC(C)C)[C@H](CO)CCCCNC(=O)N(Cc2ccccc2)Cc2cccc([N+](=O)[O-])c2)cc1` [Example 60, (2S) 2-N-isobutyl-2-N-(4-methylbenzenesulfonyl)-6-N-[N'-benzyl-N'-(3-nitrobenzyl)aminocarbonyl]-2,6-diaminohexanol], which CCIC50 [1] is on record?
Its CCIC50 is 4.6 µM.

What about the EC50 [2] of the same compound?
The EC50 was 1800 nM.

For `Cc1ccc(S(=O)(=O)N(CC(C)C)[C@H](CO)CCCCNC(=O)N(Cc2ccccc2)Cc2ccc([N+](=O)[O-])cc2)cc1` [Example 61, (2S) 2-N-isobutyl-2-N-(4-methylbenzenesulfonyl)-6-N-[N'-benzyl-N'-(4-nitrobenzyl)aminocarbonyl]-2,6-diaminohexanol], which CCIC50 [1] is on record?
Its CCIC50 is 5.1 µM.

And the EC50 [2]?
The EC50 was 3800 nM.

`CC(C)CN([C@H](CO)CCCCNC(=O)N(Cc1cccnc1)Cc1cccc(F)c1)S(=O)(=O)c1ccc(N)cc1` [Example 72, (2S) 2-N-(4-aminobenzenesulfonyl)-2-N-isobutyl-6-N-[N'-(3-fluorobenzyl)-N'-(3-picolyl)aminocarbonyl]-2,6-diaminohexanol] was tested. Which Ki ([3]; read-out: Ki) did it give?
The Ki was over 300 nM.

Which Ki ([3]; read-out: Ki) does the source give for `CC(C)CN([C@H](CO)CCCCNC(=O)N(Cc1cccnc1)Cc1ccccc1F)S(=O)(=O)c1ccc(N)cc1` [Example 73, (2S) 2-N-(4-aminobenzenesulfonyl)-2-N-isobutyl-6-N-[N'-(2-fluorobenzyl)-N'-(3-picolyl)aminocarbonyl]-2,6-diaminohexanol] here?
The Ki was over 300 nM.

For `CC(C)CN([C@H](CO)CCCCNC(=O)N(Cc1ccccc1)Cc1ccsc1)S(=O)(=O)c1ccc(N)cc1` [Example 76, (2S) 2-N-(4-aminobenzenesulfonyl)-2-N-isobutyl-6-N-[N'-benzyl-N'-(3-thiophenemethyl)aminocarbonyl]-2,6-diaminohexanol], which Ki ([3]; read-out: Ki) is on record?
Its Ki is 11 nM.

How did the Ki ([3]; read-out: Ki) turn out when `COc1ccc(CNC(=O)NCCCC[C@@H](CO)N(CC(C)C)S(=O)(=O)c2ccc(N)cc2)cc1` [Example 77, (2S) 2-N-(4-aminobenzenesulfonyl)-2-N-isobutyl-6-N-(N'-4-methoxybenzylaminocarbonyl)-2,6-diaminohexanol] was run?
Its Ki is over 300 nM.

Which Ki ([3]; read-out: Ki) does the source give for `COc1cccc(OC)c1CNC(=O)NCCCC[C@@H](CO)N(CC(C)C)S(=O)(=O)c1ccc(N)cc1` [Example 78, (2S) 2-N-(4-aminobenzenesulfonyl)-2-N-isobutyl-6-N-(N'-2,6-dimethoxybenzylaminocarbonyl)-2,6-diaminohexanol] here?
The Ki was over 300 nM.

Which Ki ([3]; read-out: Ki) does the source give for `COc1ccc(CNC(=O)NCCCC[C@@H](CO)N(CC(C)C)S(=O)(=O)c2ccc(N)cc2)c(OC)c1` [Example 79, (2S) 2-N-(4-aminobenzenesulfonyl)-2-N-isobutyl-6-N-(N'-2,4-dimethoxybenzylaminocarbonyl)-2,6-diaminohexanol] here?
The Ki was over 300 nM.

With `COc1cc(CNC(=O)NCCCC[C@@H](CO)N(CC(C)C)S(=O)(=O)c2ccc(N)cc2)cc(OC)c1` [Example 80, (2S) 2-N-(4-aminobenzenesulfonyl)-2-N-isobutyl-6-N-(N'-3,5-dimethoxybenzylaminocarbonyl)-2,6-diaminohexanol] as the compound, how does the Ki ([3]; read-out: Ki) read?
The Ki was over 300 nM.

With `CC(C)CCN([C@H](CO)CCCCNC(=O)N(Cc1ccccc1)Cc1ccccc1)S(=O)(=O)c1ccc(N)cc1` [Example 86, (2S) 2-N-(4-aminobenzenesulfonyl)-2-N-(3-methylbutyl)-6-N-(N'-N'-dibenzylaminocarbonyl)-2,6-diaminohexanol] as the compound, how does the Ki ([3]; Ki) read?
The Ki was 5.8 nM.

Which Ki ([3]; Ki) does the source give for `CC(C)CCN([C@H](CO)CCCCNC(=O)N(Cc1ccc2c(c1)OCO2)Cc1cccs1)S(=O)(=O)c1ccc(N)cc1` [Example 87, (2S) 2-N-(4-aminobenzenesulfonyl)-2-N-(3-methylbutyl)-6-N-[N'-(2-thiophenemethyl)-N'-piperonylaminocarbonyl]-2,6-diaminohexanol] here?
Its Ki is 1.4 nM.

How did the Ki ([3]; Ki) turn out when `COc1ccc(CN(Cc2ccc3c(c2)OCO3)C(=O)NCCCC[C@@H](CO)N(CCC(C)C)S(=O)(=O)c2ccc(N)cc2)cc1` [Example 88, (2S) 2-N-(4-aminobenzenesulfonyl)-2-N-(3-methylbutyl)-6-N-[N'-(4-methoxybenzyl)-N'-piperonylaminocarbonyl]-2,6-diaminohexanol] was run?
The Ki was 2.9 nM.

Which Ki ([3]; Ki) does the source give for `CC(C)CN([C@H](CO)CCCCNC(=O)N(Cc1ccccc1)Cc1cccc2c1OCO2)S(=O)(=O)c1ccc(N)cc1` [Example 91, (2S) 2-N-(4-aminobenzenesulfonyl)-2-N-isobutyl-6-N-[N'-benzyl-N'-(2,3-methylenedioxy)benzylaminocarbonyl]-2,6-diaminohexanol] here?
The Ki was 5.4 nM.

`CC(C)CN([C@H](CO)CCCCNC(=O)N(Cc1ccccc1)Cc1ccc(F)cc1F)S(=O)(=O)c1ccc(N)cc1` [Example 93, (2S) 2-N-(4-aminobenzenesulfonyl)-2-N-isobutyl-6-N-[N'-benzyl-N'-(2,4-difluorobenzyl)aminocarbonyl]-2,6-diaminohexanol] was tested. Which Ki ([3]; Ki) did it give?
The Ki was 12 nM.

For `CC(C)CCN([C@H](CO)CCCCNC(=O)N(Cc1ccccc1)Cc1cccc2c1OCO2)S(=O)(=O)c1ccc(N)cc1` [Example 96, (2S) 2-N-(4-aminobenzenesulfonyl)-2-N-(3-methylbutyl)-6-N-[N'-benzyl-N'-(2,3-methylenedioxy)benzylaminocarbonyl]-2,6-diaminohexanol], which Ki ([3]; Ki) is on record?
Its Ki is 4 nM.

With `CCC(C)CN([C@H](CO)CCCCNC(=O)N(Cc1ccccc1)Cc1ccc2c(c1)OCO2)S(=O)(=O)c1ccc(N)cc1` (stereo partly drawn) [Example 98, (2S) 2-N-(4-aminobenzenesulfonyl)-2-N-(2-methylbutyl)-6-N-[N'-benzyl-N'-piperonylaminocarbonyl]-2,6-diaminohexanol] as the compound, how does the Ki [3] read?
Its Ki is 13 nM.

For `CCC(C)CN(C(CO)CCCCNC(=O)N(Cc1ccc(OC)cc1)Cc1ccc2c(c1)OCO2)S(=O)(=O)c1ccc(N)cc1` [Example 100, (2S) 2-N-(4-aminobenzenesulfonyl)-2-N-(2-methylbutyl)-6-N-[N'-(4-methoxybenzyl)-N'-piperonylaminocarbonyl]-2,6-diaminohexanol], which Ki ([3]; read-out: Ki) is on record?
Its Ki is over 300 nM.

`CC(C)CCN([C@H](CO)CCCCNC(=O)N(Cc1ccccc1)Cc1ccc2c(c1)OCO2)S(=O)(=O)c1ccc(N)cc1` [Example 101, (2S) 2-N-(4-aminobenzenesulfonyl)-2-N-(3-methylbutyl)-6-N-[N'-benzyl-N'-piperonylaminocarbonyl]-2,6-diaminohexanol] was tested. Which Ki ([3]; Ki) did it give?
The Ki was 4.1 nM.

With `CC(C)CCN([C@H](CO)CCCCNC(=O)N(Cc1ccc(F)cc1)Cc1ccc2c(c1)OCCO2)S(=O)(=O)c1ccc(N)cc1` [Example 103, (2S) 2-N-(4-aminobenzenesulfonyl)-2-N-(3-methylbutyl)-6-N-[N'-(4-fluorobenzyl)-N'-(3,4-ethylenedioxy)benzylaminocarbonyl]-2,6-diaminohexanol] as the compound, how does the Ki ([3]; Ki) read?
The Ki was 5.4 nM.

`CC(C)CCN([C@H](CO)CCCCNC(=O)N(Cc1ccc2c(c1)OCO2)CC(C)C)S(=O)(=O)c1ccc(N)cc1` [Example 104, (2S) 2-N-(4-aminobenzenesulfonyl)-2-N-(3-methylbutyl)-6-N-(N'-isobutyl-N'-piperonylaminocarbonyl)-2,6-diaminohexanol] was tested. Which Ki ([3]; Ki) did it give?
Its Ki is 77 nM.

Which Ki ([3]; Ki) does the source give for `COc1cccc(CN(Cc2ccc3c(c2)OCO3)C(=S)NCCCC[C@@H](CO)N(CCC(C)C)S(=O)(=O)c2ccc(N)cc2)c1` [Example 105, (2S) 2-N-(4-aminobenzenesulfonyl)-2-N-(3-methylbutyl)-6-N-[N'-(3-methoxybenzyl)-N'-piperonylaminothiocarbonyl]-2,6-diaminohexanol] here?
Its Ki is 2.6 nM.

How did the Ki ([3]; Ki) turn out when `COc1ccc(CN(Cc2ccc3c(c2)OCO3)C(=S)NCCCC[C@@H](CO)N(CCC(C)C)S(=O)(=O)c2ccc(N)cc2)cc1OC` [Example 106, (2S) 2-N-(4-aminobenzenesulfonyl)-2-N-(3-methylbutyl)-6-N-[N'-(3,4-dimethoxybenzyl)-N'-piperonylaminothiocarbonyl]-2,6-diaminohexanol] was run?
The Ki was 2.9 nM.

For `CC(C)CCN([C@H](CO)CCCCNC(=S)N(Cc1ccc(F)cc1)Cc1ccc2c(c1)OCCO2)S(=O)(=O)c1ccc(N)cc1` [Example 108, (2S) 2-N-(4-aminobenzenesulfonyl)-2-N-(3-methylbutyl)-6-N-[N"(4-fluorobenzyl)-N'-(3,4-ethylenedioxy)benzylaminothiocarbonyl]-2,6-diaminohexanol], which Ki ([3]; Ki) is on record?
The Ki was 9.9 nM.

How did the Ki ([3]; Ki) turn out when `COc1ccc(CN(Cc2ccc3c(c2)OCO3)C(=S)NCCCC[C@@H](CO)N(CCC(C)C)S(=O)(=O)c2ccc(N)cc2)cc1` [Example 109, (2S) 2-N-(4-aminobenzenesulfonyl)-2-N-(3-methylbutyl)-6-N-[N'-(4-methoxybenzyl)-N'-piperonylaminothiocarbonyl]-2,6-diaminohexanol] was run?
The Ki was 3.6 nM.

Which Ki ([3]; Ki) does the source give for `COc1cccc(CN(Cc2ccc3c(c2)OCO3)C(=O)NCCCC[C@@H](CO)N(CCC(C)C)S(=O)(=O)c2ccc(N)cc2)c1` [Example 110, (2S) 2-N-(4-aminobenzenesulfonyl)-2-N-(3-methylbutyl)-6-N-[N'-(3-methoxybenzyl)-N'-piperonylaminocarbonyl]-2,6-diaminohexanol] here?
The Ki was 2.2 nM.

And the EC50 [2]?
The EC50 was 350 nM.
